# Measured values reported in US20060276407A1, “Methods of treating hepatitis C virus” (Schering Corporation, priority 2005, published 2006).
# Read-outs that look alike come from different tables or passages of the source.
# Experiment: Multiple oral dosing for 14 days, pharmacokinetics in HCV infected subjects (Example 3)
# Type: in vivo, human
# Settings: for DN Cmax / DN-AUC(0-12 hr): dose-normalized (to 100 mg); for Cmin: at 0 hour (trough) predose; for Cmax / AUC(0-t) / Tmax / Vd/F / half-life: human, plasma, oral; for half-life: read-out: t½ (converted)
# Experimental: Multiple escalating doses of compound of Formula Ia were administered for 14 days to HCV positive subjects who were genotype 1 Interferon-a (with or without ribavirin) non responders. In a randomized, placebo controlled, third party blind study, multiple doses of 100 mg BID, 200 mg BID, 400 mg BID, 400 mg TID, and 600 mg TID of compound of Formula Ia or placebo in a 3:1 ratio with or without food were evaluated.
# Upon acceptance into the study, within each cohort, subjects were randomized in a 3:1 ratio (active to placebo) and received one of the following dosing groups: • Group 1: Compound of Formula Ia 100 mg (2×50 mg) BID or matching placebo×14 days without food. • Group 2: Compound of Formula Ia 200 mg (2×100 mg) BID or matching placebo×14 days without food. • Group 3: Compound of Formula Ia 400 mg (4×100 mg) BID or matching placebo×14 days without food. • Group4: Compound of Formula Ia 400 mg (4×100 mg) TID or matching placebo×14 days without food. • Group 5: Compound of Formula Ia 400 mg (4×100 mg) BID or matching placebo×14 days with food. • Group 6: Compound of Formula Ia 600 mg (6×100 mg) BID or matching placebo×14 days without food. • Group 7: Compound of Formula Ia 600 mg (6×100 mg) BID or matching placebo×14 days with food. • Group 8: compound of Formula Ia 600 mg (6×100 mg) TID or matching placebo×14 days without food. • Group 9: compound of Formula Ia intermediate dose or matching placebo×14 days with or without food.
# Each subject was randomized to one treatment group. On Day 14, only the AM dose was administered.
# For Cohorts Without Food: Treatments were administered on the morning (approximately 8 AM) of Days 1 and 14 following a 10 hour fast. Fasting continued until 4 hours postdose. Water was allowed during the fasting period. On the nonpharmacokinetic collection days (Days 2 through 13) breakfast and dinner were consumed either 90 minutes before or 90 minutes after each dose. All treatments were administered with approximately 240 mL of noncarbonated water. All doses on Days 1-14 were administered at approximately the same time each day, for cohorts with BID dosing study treatment were administered approximately 12 hours apart at 8 AM and 8 PM, and for cohorts with TID dosing study treatment were administered approximately 8 hours apart at 8 AM, 4 PM, and 12 Midnight.
# For Cohorts With TID Dosing: All volunteers were dosed three times daily at approximately the same time each day; the doses were administered approximately 8 hours apart at 8 AM, 4 PM, and 12 Midnight.
# For Cohorts With BID Dosing: All volunteers were dosed twice a day at approximately the same time each day. The doses were administered approximately 12 hours apart at 8 AM and 8 PM.
# On Day 14, all subjects received only their assigned AM dose. During the dosing the capsule(s) were swallowed whole, not chewed or crushed. After dosing, the oral cavity was inspected to assure the volunteer had completely swallowed the capsule(s). […] Water was permitted throughout the fasting and nonfasting periods.
# The plasma concentration data of compound of Formula Ia was used to estimate the following pharmacokinetic parameters: • Cmax—Maximum observed plasma concentration; • Tmax—Time of observed maximum plasma concentration; • AUC(0-t)—Area under the plasma concentration-time curve over the dosing interval • AUC (tf)—Area under the plasma concentration-time curve to the final quantifiable sample • CL/F—Apparent total body clearance. • t½—Terminal phase half life • Vd/F—Apparent volume of distribution • R—Accumulation ratio
# All plasma samples were assayed for compound of Formula Ia using a validated liquid chromatographic tandem mass spectrometric (LC-MS/MS) method.
# [1] = 100 mg, Day 14, 100 mg BID, mean
# [2] = 200 mg, Day 14, 200 mg BID, mean
# [3] = 400 mg, Day 14, 400 mg BID, mean
# [4] = 400 mg, Day 14, 400 mg TID, mean
structure (smiles),measurement,setting,value
"CC(C)(C)NC(=O)N[C@H](C(=O)N1C[C@H]2[C@@H]([C@H]1C(=O)NC(CC1CCC1)C(=O)C(N)=O)C2(C)C)C(C)(C)C (mixture of isomers) [Formula Ia, (1 R, 5S)-N-[3-Amino-1-(Cyclobutylmethyl)-2,3-Dioxopropyl]-3-[2(S)-[[[(1,1-Dimethylethyl)Amino]Carbonyl]Amino]-3,3-Dimethyl-1-Oxobutyl]-6,6-Dimethyl-3-Azabicyclo[3.1.0]Hexan-2(S)-Carboxamide]",mean accumulation ratio,BID dosing,1
same,DN Cmax,"Day 1, 100 mg BID, mean",0.131 µg/mL
same,DN-AUC(0-12 hr),"Day 1, 100 mg BID, mean",0.417 µg·h/mL
same,DN Cmax,"Day 1, 200 mg BID, mean",0.162 µg/mL
same,DN-AUC(0-12 hr),"Day 1, 200 mg BID, mean",0.492 µg·h/mL
same,DN Cmax,"Day 1, 400 mg BID, mean",0.116 µg/mL
same,DN-AUC(0-12 hr),"Day 1, 400 mg BID, mean",0.421 µg·h/mL
same,Cmin,"Day 14, 100 mg BID, mean",0.0127 µg/mL
same,DN Cmax,"Day 14, 100 mg BID, mean",0.193 µg/mL
same,DN-AUC(0-12 hr),"Day 14, 100 mg BID, mean",0.7 µg·h/mL
same,CL/F,"Day 14, 100 mg BID, mean",159 L/h
same,R (accumulation ratio),"Day 14, 100 mg BID, mean",2.40
same,t½,"Day 14, 100 mg BID, mean",8.58 h
same,Cmin,"Day 14, 200 mg BID, mean",0.0463 µg/mL
same,DN Cmax,"Day 14, 200 mg BID, mean",0.212 µg/mL
same,DN-AUC(0-12 hr),"Day 14, 200 mg BID, mean",0.693 µg·h/mL
same,CL/F,"Day 14, 200 mg BID, mean",155 L/h
same,R (accumulation ratio),"Day 14, 200 mg BID, mean",1.45
same,Cmin,"Day 14, 400 mg BID, mean",0.0488 µg/mL
same,DN Cmax,"Day 14, 400 mg BID, mean",0.115 µg/mL
same,DN-AUC(0-12 hr),"Day 14, 400 mg BID, mean",0.411 µg·h/mL
same,CL/F,"Day 14, 400 mg BID, mean",269 L/h
same,R (accumulation ratio),"Day 14, 400 mg BID, mean",1.00
same,Cmin,"Day 14, 400 mg TID, mean",0.183 µg/mL
same,DN Cmax,"Day 14, 400 mg TID, mean",0.138 µg/mL
same,CL/F,"Day 14, 400 mg TID, mean",206 L/h
same,R (accumulation ratio),"Day 14, 400 mg TID, mean",1.26
same,Cmax,"100 mg, Day 1, 100 mg BID, mean, n = 12",0.131 µg/mL
same,AUC(0-t),"100 mg, Day 1, 100 mg BID, mean, read-out: AUC(0-12 hr)",0.417 µg·h/mL
same,Tmax,"100 mg, Day 1, 100 mg BID, median, read-out: Tmax",1.5 h
same,Cmax,[1],0.193 µg/mL
same,Vd/F,[1],1860 L
same,AUC(0-t),"100 mg, Day 14, 100 mg BID, mean, read-out: AUC(0-12 hr)",0.7 µg·h/mL
same,half-life,[1],8.5 h
same,Tmax,"100 mg, Day 14, 100 mg BID, median, read-out: Tmax",1.25 h
same,Cmax,"200 mg, Day 1, 200 mg BID, mean, n = 12",0.324 µg/mL
same,AUC(0-t),"200 mg, Day 1, 200 mg BID, mean, read-out: AUC(0-12 hr)",0.983 µg·h/mL
same,Tmax,"200 mg, Day 1, 200 mg BID, median, read-out: Tmax",1 h
same,Cmax,[2],0.424 µg/mL
same,Vd/F,[2],2910 L
same,AUC(0-t),"200 mg, Day 14, 200 mg BID, mean, read-out: AUC(0-12 hr)",1.39 µg·h/mL
same,half-life,[2],13.4 h
same,Tmax,"200 mg, Day 14, 200 mg BID, median, read-out: Tmax",1.25 h
same,Cmax,"400 mg, Day 1, 400 mg BID, mean, n = 11",0.463 µg/mL
same,AUC(0-t),"400 mg, Day 1, 400 mg BID, mean, read-out: AUC(0-12 hr)",1.68 µg·h/mL
same,Tmax,"400 mg, Day 1, 400 mg BID, median, read-out: Tmax",1.5 h
same,Cmax,"400 mg, Day 1, 400 mg TID, mean, n = 10",0.504 µg/mL
same,AUC(0-t),"400 mg, Day 1, 400 mg TID, mean, read-out: AUC(0-8 hr)",1.65 µg·h/mL
same,Tmax,"400 mg, Day 1, 400 mg TID, median, read-out: Tmax",1.5 h
same,Cmax,[3],0.459 µg/mL
same,Vd/F,[3],5030 L
same,AUC(0-t),"400 mg, Day 14, 400 mg BID, mean, read-out: AUC(0-12 hr)",1.64 µg·h/mL
same,half-life,[3],12.4 h
same,Tmax,"400 mg, Day 14, 400 mg BID, median, read-out: Tmax",1 h
same,Cmax,[4],~0.55 µg/mL
same,Vd/F,[4],~5000 L
same,AUC(0-t),"400 mg, Day 14, 400 mg TID, mean, read-out: AUC(0-8 hr)",1.99 µg·h/mL
same,half-life,[4],15.9 h
same,Tmax,"400 mg, Day 14, 400 mg TID, median, read-out: Tmax",1.5 h
same,Tmax,"across dosages (100 mg BID to 400 mg TID), read-out: Mean Tmax",1 to 1.5 h
same,Time at which steady-state trough levels were reached,multiple dosing,~11 days
